According to ChEMBL document CHEMBL4392873, “Transformation of Santonin to a Naproxen Analogue with Anti-Inflammatory Activity” (J Nat Prod, 2019):

Columns and labels:
[1] = system: Prostaglandin G/H synthase 2; experiment: Inhibition of COX2 (unknown origin) assessed as reduction in prostaglandin E2 production at 30 uM incubated for 10 mins before arachidonic acid addition and measured after 25 mins by LC-MS/MS analysis; conditions: Homo sapiens
[2] = Selectivity index, ratio of IC50 for ovine COX1 to IC50 for COX2 (unknown origin)
[3] = molecular target: Prostaglandin G/H synthase 1 (Ovis aries) (UniProt P05979); experiment: Inhibition of ovine COX1 assessed as reduction in prostaglandin E2 production at 30 uM incubated for 10 mins before arachidonic acid addition and measured after 25 mins by LC-MS/MS analysis

inhibition [1]: 21.8%
Ratio IC50 [2]: 0.496
inhibition [3]: 52.9%
Compound: COC(=O)[C@@H](C)c1ccc2c(C)cc(O)c(C)c2c1
